Measured values from patent US20210177856A1, “USE OF ATR INHIBITORS IN COMBINATION WITH PARP INHIBITORS” (Repare Therapeutics Inc., priority 2019, published 2021).

Columns and labels:
[1] = test system: RPE1-hTERT TP53−/− RNASEH2B−/− cells; assay: 6-day CTG viability assay, RPE1-hTERT TP53−/− RNASEH2B−/− cells; assay type: cell-based; conditions: Compound 43 combined with niraparib; compared with Compound 121 plus niraparib; FIGS. 3A and 3B
Experimental: Viability was measured with a 6-day CTG assay. Mean of three independent experiments±SD. Solid lines, non-linear least squares fit to a four-parameter dose-response model. IC50 values are indicated below panels. […] Viability was measured with a 6-day CTG assay. Mean of three independent experiments±SD. Solid lines, non-linear least squares fit to a four-parameter dose-response model. IC50 values are indicated below panels.

DLD1 BRCA2−/− cells = assay: 48 h treatment, CTG viability, DLD1 BRCA2−/− cells; assay type: cell-based; conditions: 48-hr treatment with combination of Compound 121 and talazoparib; FIGS. 8A and 8B
Experimental: FIG. 8A is a chart showing dose response curves of DLD1 BRCA2+/+ cells to talazoparib in the absence (DMSO) or presence of indicated concentrations of Compound 121. Cells were treated for 48 h, followed by removal of the compounds and growth in fresh media. Viability was measured at day 6 by a CTG assay. Mean of three independent experiments±SD. Solid lines, non-linear least squares fit to a four-parameter dose-response model. IC50 values are indicated below panels.
FIG. 8B is a chart showing dose response curves of DLD1 BRCA2−/− cells to talazoparib in the absence (DMSO) or presence of indicated concentrations of Compound 121. Cells were treated for 48 h, followed by removal of the compounds and growth in fresh media. Viability was measured at day 9 by a CTG assay. Mean of three independent experiments±SD. Solid lines, non-linear least squares fit to a four-parameter dose-response model. IC50 values are indicated below panels.

MIAPACA2 ATM−/− cells = assay: 48 h treatment, CTG viability at day 6, MIAPACA2 ATM−/− cells; assay type: cell-based; conditions: 48 h treatment with combination of niraparib and Compound 121; MIAPACA2 ATM CRISPR knockout; FIGS. 6A and 6B
Experimental: (§1) Cells were treated for 48 h, followed by removal of the compounds and growth in fresh media. Viability was measured at day 6 by a CTG assay. Mean of three technical replicates±SD. Solid lines, non-linear least squares fit to a four-parameter dose-response model. IC50 values are indicated below panels. […] Cells were treated for 48 h, followed by removal of the compounds and growth in fresh media. Viability was measured at day 6 by a CTG assay. Mean of three technical replicates±SD. Solid lines, non-linear least squares fit to a four-parameter dose-response model. IC50 values are indicated below panels.

[2] = test system: RPE1-hTERT TP53−/− CDK12−/− cells; assay: 48 h treatment, CTG viability at day 6, RPE1-hTERT TP53−/− CDK12−/− cells; assay type: cell-based; conditions: 48-hr treatment with combination of Compound 121 and niraparib; FIGS. 7A and 7B
Experimental: as §1, with “independent experiments±SD.” for “technical replicates±SD.”

5637 RNASEH2B+/+ cells = assay: ZIP synergy matrix and 7-day CTG viability assay, 5637 RNASEH2B+/+ cells; assay type: cell-based; conditions: combination of Compound 121 and niraparib, FIG. 1A
Experimental: (§2) FIG. 1A is chart showing ZIP synergy score matrix in RNASEH2B+/+ cells. […] Score of >10 indicates synergy, while <(−10) indicates antagonism. Dashed lines represent the IC50 value of each compound in the respective cell line. […] Viability was measured with a 7-day CTG assay. Mean of three independent experiments±SD. Solid lines, non-linear least squares fit to a four-parameter dose-response model. IC50 values are indicated below panels. […] Viability was measured with a 7-day CTG assay. Mean of three technical replicates±SD. Solid lines, non-linear least squares fit to a four-parameter dose-response model. IC50 values are indicated below panels.

5637 RNASEH2B−/− cells = assay: ZIP synergy matrix and 7-day CTG viability assay, 5637 RNASEH2B−/− cells; assay type: cell-based; conditions: for concentration at maximum synergy, lower in RNASEH2B−/− than in RNASEH2B+/+ cells: FIGS. 1A and 1B
Experimental: as §2, with “1B” for “1A”, “RNASEH2B−/−” for “RNASEH2B+/+”

[3] = test system: ALT-positive (ALT+) cancer cell lines; assay: Cell viability of ALT+ and ALT− cancer cell line panels; assay type: cell-based; conditions: combination of low-nanomolar doses of Compound 121 and talazoparib; five ALT+ lines; FIGS. 9A and 9B
Experimental: FIG. 9A is a chart showing cell viability for ALT+ and ALT− cell lines that were untreated, treated with talazoparib alone, treated with compound 121 alone, or treated with a combination of talazoparib and compound 121.
FIG. 9B is a chart showing the cell viability for ALT+ and ALT− cells that were treated with a combination of talazoparib and compound 121.

[4] = test system: 5637 RNASEH2B+/+ and −/− cells; conditions: FIG. 5B
Experimental: FIG. 5A is a scheme showing the experimental design. 5637 cells were treated with niraparib alone or niraparib combined with an IC50 concentration of Compound 121 for indicated times with or without removal of compounds. Cell viability was analyzed by a CellTiter Glo (CTG) assay 168 h post treatment.
FIG. 5B is a chart showing apparent niraparib IC50 values in 5637 RNASEH2B+/+ and −/− cells from experiments described in FIG. 5A. Values were obtained by fitting mean data from three independent experiments to a four-parameter dose-response model. Error bars, 95% confidence interval (CI).
To guide the combined dosing of Compound 121 and niraparib in RNASEH2B-deficient tumor cells, a continuous 168 h concomitant treatment of 5637 RNASEH2B+/+ and −/− cells with both compounds was compared to either a 48 or 72 h treatment followed by removal of compounds and growth in drug-free media (FIG. 5A).

[5] = combination of Compound 121 and niraparib, 5637 cells

| Compound | sensitization of RNASEH2B-deficient cells [1] | sensitization of isogenic cell line lacking BRCA2 (DLD1 BRCA2−/− cells) | synergistic sensitization of ATM−/− clone (MIAPACA2 ATM−/− cells) [×] | sensitization of isogenic cell line lacking CDK12 [2] | synergy with niraparib (ZIP synergy score) (5637 RNASEH2B+/+ cells) | sensitization of RNASEH2B-deficient cells (5637 RNASEH2B−/− cells; Compound 121 combined with talazoparib, 5637 cells, 7-day CTG, FIGS. 4A and 4B) | synergy with niraparib (ZIP synergy score) (5637 RNASEH2B−/− cells; combination of Compound 121 and niraparib, 5637 RNASEH2B−/− cells, FIG. 1B) | concentration at maximum synergy, lower in RNASEH2B−/− than in RNASEH2B+/+ cells (5637 RNASEH2B−/− cells; [5]) | sensitivity of ALT+ panel relative to ALT− control panel [3] | shift of apparent IC50 of niraparib from RNASEH2B+/+ to RNASEH2B−/− cells (5637 RNASEH2B−/− cells; in presence of Compound 121, 5637 cells, 7-day CTG, FIGS. 2A and 2B) [fold] | apparent IC50 value of niraparib ([4]; in presence of Compound 121 (IC50 concentration), dosed continuously for 168 h) | difference in apparent IC50 values of niraparib when treatment shortened ([4]; with Compound 121, 72 or 48 h treatment then drug-free media vs 168 h continuous) |
| --- | --- | --- | --- | --- | --- | --- | --- | --- | --- | --- | --- | --- |
| C[C@@H]1COCCN1c1cc(-c2ccccc2S(C)(=O)=O)c2cnn(-c3cc[nH]n3)c2n1 [Compound 43] | sensitized RNASEH2B-deficient cells to a similar extent | – | – | – | – | – | – | – | – | – | – | – |
| C[C@@H]1COCCN1c1cc([C@@]2(O)C[C@H]3CC[C@@H](C2)O3)c2cnn(-c3cc[nH]n3)c2n1 [Compound 121] | – | synergistically sensitized | > 300 | synergistically sensitized | strongly synergized | strong sensitization | strongly synergized | ca. three-fold | more sensitive | – | – | – |
| NC(=O)c1cccc2cn(-c3ccc([C@@H]4CCCNC4)cc3)nc12 [niraparib, reference compound] | – | – | – | – | – | – | – | ca. ten-fold | – | ≤ 200 | decreased | No significant difference |
